Test results taken from PMC11866180, “Facile Synthesis of Carbamoyl Fluorides viaN-Carbamoylimidazole Activation” (ACS Omega, 2025).
Like-named read-outs stand apart in the source and are kept apart here.

Experiments:
Assay in all cases: Ellman assay, […] nm
Format in all cases: biochemical
[1] = biological target: T1, hBChE (human butyrylcholinesterase) (Homo sapiens, UniProt P06276)
T1 construct: gene BCHE

[2] = biological target: T2, hAChE (human acetylcholinesterase) (Homo sapiens, UniProt P22303)
T2 construct: gene ACHE

[3] = biological target: T1, hBChE (human butyrylcholinesterase); remark: listed apart in the source

T1 sequence (P06276 29-602): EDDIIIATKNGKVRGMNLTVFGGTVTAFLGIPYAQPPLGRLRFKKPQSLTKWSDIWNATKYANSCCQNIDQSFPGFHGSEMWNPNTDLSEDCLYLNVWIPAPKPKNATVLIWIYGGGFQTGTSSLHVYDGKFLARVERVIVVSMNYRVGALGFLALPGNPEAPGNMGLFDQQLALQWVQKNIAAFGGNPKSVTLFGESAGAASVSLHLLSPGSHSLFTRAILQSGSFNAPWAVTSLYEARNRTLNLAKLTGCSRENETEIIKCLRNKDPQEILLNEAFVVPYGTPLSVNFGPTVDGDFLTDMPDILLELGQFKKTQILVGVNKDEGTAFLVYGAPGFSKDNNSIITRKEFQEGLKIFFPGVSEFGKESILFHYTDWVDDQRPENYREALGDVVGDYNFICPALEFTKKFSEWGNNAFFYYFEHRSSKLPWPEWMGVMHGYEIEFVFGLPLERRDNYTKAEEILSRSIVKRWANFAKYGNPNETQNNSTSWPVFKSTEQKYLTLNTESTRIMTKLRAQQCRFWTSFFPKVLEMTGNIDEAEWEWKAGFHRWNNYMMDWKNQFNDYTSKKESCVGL
T2 sequence (P22303 32-614): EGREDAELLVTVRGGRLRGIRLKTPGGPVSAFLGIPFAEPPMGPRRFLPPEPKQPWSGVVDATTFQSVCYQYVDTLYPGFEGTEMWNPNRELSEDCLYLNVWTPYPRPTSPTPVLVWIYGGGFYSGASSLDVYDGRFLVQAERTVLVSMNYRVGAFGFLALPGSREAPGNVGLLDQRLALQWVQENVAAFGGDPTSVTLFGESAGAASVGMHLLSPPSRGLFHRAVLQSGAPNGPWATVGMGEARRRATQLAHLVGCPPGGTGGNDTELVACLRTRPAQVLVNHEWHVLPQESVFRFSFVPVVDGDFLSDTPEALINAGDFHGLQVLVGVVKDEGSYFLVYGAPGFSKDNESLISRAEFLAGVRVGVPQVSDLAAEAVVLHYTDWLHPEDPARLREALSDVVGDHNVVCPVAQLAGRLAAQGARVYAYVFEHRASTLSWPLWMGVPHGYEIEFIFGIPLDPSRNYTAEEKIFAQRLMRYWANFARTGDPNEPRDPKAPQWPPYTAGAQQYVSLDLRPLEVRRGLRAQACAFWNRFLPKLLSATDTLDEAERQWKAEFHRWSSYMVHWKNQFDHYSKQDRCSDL

SMILES	IC50 ([1]; read-out: hBChE) [nM]	IC50 ([2]; read-out: hAChE) [nM]	activity at 100 µM [3] [%]	IC50 [1] [nM]	IC50 [2] [nM]
O=C(F)N1Cc2ccccc2C1 [3e, Isoindoline-2-carbonyl Fluoride]	32200	103000			
O=C(F)N1CCc2ccccc21 [3d, Indoline-1-carbonyl Fluoride]		4620 ± 1150	56.2 ± 3.7		
CN(Cc1ccccc1)C(=O)F [3a, Benzyl(methyl)carbamic Fluoride]	156 ± 9	5650 ± 947			
CN(C(=O)F)c1cccc2cc[nH]c12 [3k, (1H-Indol-7-yl)(methyl)carbamic Fluoride]	5.56 ± 0.83	151 ± 8			
C#CCCCCCCCCCN(C)C(=O)F [3i, Methyl(undec-10-yn-1-yl)carbamic Fluoride]				197 ± 36	5070 ± 1150
O=C(F)N1CCC(Cc2ccccc2)CC1 [3g, 4-Benzylpiperidine-1-carbonyl Fluoride]	2.78 ± 0.15	554 ± 79			
O=C(F)N(Cc1ccccc1)Cc1ccccc1 [3b, Dibenzylcarbamic Fluoride]	69.6 ± 4	2200 ± 270			
O=C(F)N1CCN(c2ccccc2F)CC1 [3j, 4-(2-Fluorophenyl)piperazine-1-carbonyl Fluoride]				656 ± 32	10700
O=C(F)N1CCC(c2c[nH]c3ccccc23)CC1 [3h, 4-(1H-Indol-3-yl)piperidine-1-carbonyl Fluoride]				23.5 ± 4.6	18700
CCCCN(Cc1ccccc1)C(=O)F [3c, Benzyl(butyl)carbamic Fluoride]				2430 ± 400	4480 ± 1140
O=C(F)N1CCc2ccccc2C1 [3f, 3,4-Dihydroisoquinoline-2(1H)-carbonyl Fluoride]	707 ± 122	22600			
